According to ChEMBL document CHEMBL5131476, “Development of dihydropyrrolopyridinone-based PKN2/PRK2 chemical tools to enable drug discovery” (Bioorg Med Chem Lett, 2022):

Tests used:
[1] = target: T1, Serine/threonine-protein kinase N1 (Homo sapiens, UniProt Q16512); assay: Inhibition of PKN1 (unknown origin) by TR-FRET-based tracer displacement assay dependent Cheng-Prusoff equation analysis
[2] = target: T1, Serine/threonine-protein kinase N1; assay: Inhibition of PKN1 (unknown origin) by TR-FRET-based tracer displacement assay
[3] = target: T2, Serine/threonine-protein kinase N2 (Homo sapiens, UniProt Q16513); assay: Inhibition of PKN2 (unknown origin) by TR-FRET-based tracer displacement assay
[4] = target: T2, Serine/threonine-protein kinase N2; assay: Inhibition of PKN2 (unknown origin) by TR-FRET-based tracer displacement assay dependent Cheng-Prusoff equation analysis
[5] = target: T2, Serine/threonine-protein kinase N2; assay: Inhibition of NanoLuc-PKN2 (ser646-cys984)(unknown origin) expressed in HEK293 cells by cell-based NanoBRET target engagement assay
[6] = Toxicity in human HeLa cells assessed as cell viability at 50 uM incubated for 24 hrs by MTT assay; assay type: cell-based; details: read-out: Activity
[7] = target: T2, Serine/threonine-protein kinase N2; assay: Inhibition of NanoLuc-PKN2 (ser646-cys984)(unknown origin) expressed in HEK293 cells in […] by cell-based NanoBRET target engagement assay

T1 sequence (Q16512 whole entry): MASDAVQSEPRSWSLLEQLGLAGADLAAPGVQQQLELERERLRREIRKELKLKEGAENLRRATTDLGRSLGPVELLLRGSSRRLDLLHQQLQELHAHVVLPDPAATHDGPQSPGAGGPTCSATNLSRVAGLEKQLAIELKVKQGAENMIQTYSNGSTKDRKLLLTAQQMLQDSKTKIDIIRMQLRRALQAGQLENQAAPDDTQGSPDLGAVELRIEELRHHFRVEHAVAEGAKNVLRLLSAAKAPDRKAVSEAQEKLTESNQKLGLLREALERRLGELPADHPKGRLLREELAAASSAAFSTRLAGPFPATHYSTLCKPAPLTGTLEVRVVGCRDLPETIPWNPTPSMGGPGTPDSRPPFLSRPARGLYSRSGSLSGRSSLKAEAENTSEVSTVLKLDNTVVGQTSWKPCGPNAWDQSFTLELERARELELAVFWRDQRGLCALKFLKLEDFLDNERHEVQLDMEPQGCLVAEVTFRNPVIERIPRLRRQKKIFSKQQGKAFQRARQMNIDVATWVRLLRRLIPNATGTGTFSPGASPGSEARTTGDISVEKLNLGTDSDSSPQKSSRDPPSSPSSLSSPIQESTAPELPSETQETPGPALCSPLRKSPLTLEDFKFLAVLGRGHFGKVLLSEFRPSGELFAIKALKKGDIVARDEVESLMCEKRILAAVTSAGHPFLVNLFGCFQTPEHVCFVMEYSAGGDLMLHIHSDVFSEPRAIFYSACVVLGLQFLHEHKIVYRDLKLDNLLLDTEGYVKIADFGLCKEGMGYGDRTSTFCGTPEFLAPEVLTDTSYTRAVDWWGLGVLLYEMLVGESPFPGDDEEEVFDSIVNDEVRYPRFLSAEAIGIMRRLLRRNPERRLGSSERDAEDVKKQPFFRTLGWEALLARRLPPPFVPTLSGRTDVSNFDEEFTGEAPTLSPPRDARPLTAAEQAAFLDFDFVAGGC
T2 sequence (Q16513 whole entry): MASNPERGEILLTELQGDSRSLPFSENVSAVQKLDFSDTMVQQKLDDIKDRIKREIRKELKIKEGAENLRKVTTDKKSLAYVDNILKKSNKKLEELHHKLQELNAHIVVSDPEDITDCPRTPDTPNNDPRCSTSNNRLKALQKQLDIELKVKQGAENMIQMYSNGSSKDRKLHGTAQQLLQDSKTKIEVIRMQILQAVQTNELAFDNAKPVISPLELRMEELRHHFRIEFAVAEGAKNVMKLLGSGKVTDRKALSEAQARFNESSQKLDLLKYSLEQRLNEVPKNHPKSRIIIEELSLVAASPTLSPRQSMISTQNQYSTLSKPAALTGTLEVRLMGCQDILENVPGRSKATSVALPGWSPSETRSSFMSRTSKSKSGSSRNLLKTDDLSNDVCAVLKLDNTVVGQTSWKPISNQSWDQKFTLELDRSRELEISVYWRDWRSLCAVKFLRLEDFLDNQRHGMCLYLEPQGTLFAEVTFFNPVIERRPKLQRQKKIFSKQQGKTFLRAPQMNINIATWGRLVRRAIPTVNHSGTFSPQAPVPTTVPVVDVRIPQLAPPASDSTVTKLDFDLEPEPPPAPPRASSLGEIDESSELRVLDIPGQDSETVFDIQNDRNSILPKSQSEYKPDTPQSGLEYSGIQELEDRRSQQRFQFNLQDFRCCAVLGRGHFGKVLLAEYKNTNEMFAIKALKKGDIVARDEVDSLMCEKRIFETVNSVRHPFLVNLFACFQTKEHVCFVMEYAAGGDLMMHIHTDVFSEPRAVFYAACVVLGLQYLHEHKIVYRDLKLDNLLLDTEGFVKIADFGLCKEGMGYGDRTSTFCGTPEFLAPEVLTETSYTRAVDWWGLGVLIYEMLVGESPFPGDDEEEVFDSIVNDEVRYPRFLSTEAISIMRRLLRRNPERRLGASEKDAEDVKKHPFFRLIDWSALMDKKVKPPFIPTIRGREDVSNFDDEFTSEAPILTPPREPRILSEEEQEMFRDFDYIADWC

SMILES	Ki [1] [nM]	IC50 [2] [nM]	IC50 [3] [nM]	Ki [4] [nM]	IC50 [5] [nM]	IC50 [7] [nM]	viability at 24 h, 50 µM [6] [%]
O=C1CCCc2[nH]c(-c3ccncc3)cc21	650	1300	60	30			
c1cc(-c2cc3c([nH]2)CCNC3)ccn1		> 5000	2200	1100			
O=C1NCCc2[nH]c(-c3cccnc3)cc21		> 5000	3200	1600			
CCn1c(-c2ccncc2)cc2c1CCN(C)C2=O		> 5000	350	170			
CCCN1CCc2c(cc(-c3ccncc3)n2CC)C1=O		> 5000	2600	1300			
O=C1NC(c2ccccc2)Cc2[nH]c(-c3ccncc3)cc21 (stereo not drawn)	260	520	50	25			

Second part, led by results:

Ki [1] [nM]	IC50 [2] [nM]	IC50 [3] [nM]	Ki [4] [nM]	IC50 [5] [nM]	IC50 [7] [nM]	SMILES	viability at 24 h, 50 µM [6] [%]
220	440	30	15	11000		O=C1NCCc2c1cc(-c1ccncc1)n2CCO	
60	120	15	7	2800		CCCn1c(-c2ccncc2)cc2c1CCNC2=O	≥ 70
150	300					O=C1NCCc2[nH]c(-c3ccncc3)cc21	≥ 70
1500	3000	640	320			O=C1NCCc2c1cc(-c1ccncc1)n2Cc1ccccc1	
108	210	16	8	2100	1100	CCn1c(-c2ccncc2)cc2c1CCNC2=O	≥ 70
920	1840	140	70			CC(C)n1c(-c2ccncc2)cc2c1CCNC2=O	
2200	4500	260	130			Cn1c(-c2ccncc2)cc2c1CCNC2=O	
